Columns and labels:
HS-PSS [1] = test: relative IC50 (inflection point of fitted dose-response curve, CellTox-Green cytotoxicity, 72 h; top asymptote may be below 50%); higher = less potent
Outline: (§1)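 MPNST cell lines and primary human Schwann cells were grown for 72 h at 37 °C in 384-well plates containing five 10-fold compound dilutions. CellTox-Green, added before seeding at a final 1:1000 dilution, gave fluorescence from DNA released by disrupted cells, and signals were scaled to vehicle and positive-control wells. Curves were fitted with a four-parameter logistic model. Drug sensitivity score and relative IC50 come from these fits, with IC50 censored at the top concentration.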

HSC1 [2] = test: as above
Outline: as §1

HSC2 [3] = test: as above
Outline: as §1

S1507-2 [4] = test: as above
Outline: as §1

ST8814 [5] = test: as above
Outline: as §1

STS26T [6] = test: as above
Outline: as §1

HS-PSS [7] = test: relative IC50 (inflection point of fitted dose-response curve, CellTiter-Glo viability, 72 h; top asymptote may be below 50% inhibition); higher = less potent
Outline: (§2)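 Viability of MPNST cell lines and primary human Schwann cells was read as CellTiter-Glo ATP luminescence after 72 h at 37 °C, 5% CO2, in 384-well plates seeded with 750–1000 cells per well. Each compound had been preprinted at five concentrations in 10-fold steps. Signals were scaled between vehicle and positive-control wells, duplicates averaged where present, and fitted with four-parameter logistic curves. Drug sensitivity score and relative IC50 (censored at the top concentration) come from those fits, and percent inhibition is taken at the top concentration.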

HS-Sch-2 = test: as above
Outline: as §2

S1507-2 [8] = test: as above
Outline: as §2

S462 = test: as above
Outline: as §2

ST8814 [9] = test: as above
Outline: as §2

STS26T [10] = test: as above
Outline: as §2

YST-1 = test: as above
Outline: as §2

HSC1 [11] = test: as above
Outline: as §2

HSC2 [12] = test: as above
Outline: as §2

SMILES | relative IC50 (HS-PSS [1]) | relative IC50 (HSC1 [2]) | relative IC50 (HSC2 [3]) | relative IC50 (S1507-2 [4]) | relative IC50 (ST8814 [5]) | relative IC50 (STS26T [6]) | relative IC50 (HS-PSS [7]) | relative IC50 (HS-Sch-2) | relative IC50 (S1507-2 [8]) | relative IC50 (S462) | relative IC50 (ST8814 [9]) | relative IC50 (STS26T [10]) | relative IC50 (YST-1) | relative IC50 (HSC1 [11]) | relative IC50 (HSC2 [12])
Cc1nc(C(=O)NCC(=O)O)c(O)c2ccc(Oc3ccccc3)cc12 [FG-4592] | > 10 µM | > 10 µM | > 10 µM | > 10 µM | > 10 µM | > 10 µM | 1.21 µM | 2.47 µM | > 10 µM | > 10 µM | > 10 µM | > 10 µM | > 10 µM |  | 
COc1cc(O)c2c(c1)/C=C/C[C@H](O)[C@H](O)C(=O)/C=C\C[C@H](C)OC2=O [(5Z)-7-Oxozeaenol] | > 10 µM |  | 3.9 µM | 3.52 µM |  | 3.07 µM | 3.82 µM | 2.79 µM | 2.45 µM | 1.66 µM | 1.33 µM | 1.36 µM | 2.02 µM | 1.69 µM | 1.32 µM
Nc1nccc(-c2c(-c3ccc(F)cc3)ncn2C2CCCCC2)n1 |  | > 10 µM | > 10 µM | > 10 µM | > 10 µM |  |  | 3.78 µM | > 10 µM | > 10 µM |  | > 10 µM | 0.8 µM | > 10 µM | > 10 µM
COc1cccc2c1C(=O)c1c(O)c3c(c(O)c1C2=O)C[C@@](O)(C(C)=O)C[C@@H]3O[C@H]1C[C@H](N)[C@H](O)[C@H](C)O1 [Daunorubicin] | > 1 µM | 0.366 µM | 0.344 µM | > 1 µM |  |  | 0.122 µM | 0.117 µM | 0.146 µM | 0.0493 µM | 0.101 µM | 0.0716 µM | 0.027 µM | 0.12 µM | 0.0725 µM
O=C(NC[C@H](O)CO)c1ccncc1Nc1ccc(I)cc1F [Pimasertib] | > 10 µM |  | > 10 µM | 2.16 µM | 2.06 µM |  | 2.39 µM | 0.962 µM | 0.476 µM | 0.507 µM | 0.971 µM | 0.241 µM | 3.8 µM | 0.73 µM | 0.846 µM
CC(O)(CS(=O)(=O)c1ccc(F)cc1)C(=O)Nc1ccc(C#N)c(C(F)(F)F)c1 (centres undefined) [Bicalutamide] | > 10 µM | > 10 µM | > 10 µM | > 10 µM | > 10 µM | > 10 µM |  |  | > 10 µM |  | > 10 µM |  | > 10 µM |  | > 10 µM
CC(=O)Nc1cccc(-n2c(=O)n(C3CC3)c(=O)c3c(Nc4ccc(I)cc4F)n(C)c(=O)c(C)c32)c1 [Trametinib] | > 0.25 µM | > 0.25 µM |  | 0.0458 µM | 0.0463 µM |  | 0.0281 µM | 0.0486 µM | 0.0152 µM | 0.0099 µM | 0.016 µM | 0.00759 µM | > 0.25 µM | 0.0106 µM | 0.0185 µM
N#Cc1ccc(COC[C@H]2O[C@@H](n3c(NCc4ccc(Cl)c(Cl)c4)nc4c(N)ncnc43)[C@H](O)[C@@H]2O)cc1 | > 10 µM | > 10 µM | > 10 µM | > 10 µM | > 10 µM |  |  | > 10 µM | > 10 µM |  | > 10 µM | 1.1 µM | 1.24 µM | 0.784 µM | 0.261 µM
CC[C@H](CO)Nc1nc(NCc2ccccc2)c2ncn(C(C)C)c2n1 [Seliciclib] |  | > 10 µM | > 10 µM | > 10 µM | > 10 µM |  | 1.67 µM |  | > 10 µM | 3.61 µM | > 10 µM |  | > 10 µM |  | 3.99 µM
CC(C)C(=O)Nc1ccc([N+](=O)[O-])c(C(F)(F)F)c1 [Flutamide] | > 10 µM | > 10 µM | > 10 µM | > 10 µM | > 10 µM | > 10 µM |  | > 10 µM | > 10 µM | > 10 µM | > 10 µM |  | > 10 µM |  | > 10 µM
Nc1ccccc1NC(=O)c1ccc(CNC(=O)OCc2cccnc2)cc1 [Entinostat] |  | > 10 µM | > 10 µM | 3.24 µM | 3.64 µM |  | 3.73 µM | 3.41 µM | 2.68 µM | 1.5 µM | 3.7 µM | 2.74 µM | 1.24 µM | 2.34 µM | 2.56 µM
CC[C@H](CC#N)OC(=O)N[C@@H](C)c1cccc(NC(=O)Nc2ccc(-c3cnco3)c(OC)c2)c1 [AVN944] | > 10 µM | > 10 µM | > 10 µM | > 10 µM | 0.886 µM |  | 0.309 µM | 0.64 µM | 0.5 µM | 0.32 µM | 0.614 µM | 0.398 µM | 0.317 µM | 0.108 µM | 0.0934 µM
Cc1ccc(-c2cc(C(F)(F)F)nn2-c2ccc(S(N)(=O)=O)cc2)cc1 [Celecoxib] | > 10 µM | > 10 µM | > 10 µM | > 10 µM | > 10 µM | > 10 µM | > 10 µM | > 10 µM | > 10 µM | > 10 µM | > 10 µM | > 10 µM | > 10 µM |  | > 10 µM
Clc1ccc(Nc2nnc(Cc3ccncc3)c3ccccc23)cc1 [Vatalanib] | > 10 µM | > 10 µM | > 10 µM | > 10 µM | > 10 µM | > 10 µM |  |  | > 10 µM |  | > 10 µM | > 10 µM |  | > 10 µM | 
N[C@@H](CSC(c1ccccc1)(c1ccccc1)c1ccccc1)C(=O)O [S-trityl-L-cysteine] |  | > 40 µM | > 40 µM | > 40 µM | > 40 µM | > 40 µM |  |  | > 40 µM |  | > 40 µM |  |  |  | > 40 µM

From the supplement of paper PMC5579334
